Results: ChEMBL document CHEMBL1141986, “Molecular docking of the highly hypolipidemic agent alpha-asarone with the catalytic portion of HMG-CoA reductase” (Bioorg Med Chem Lett, 2005)
pIC50, pKi: −log10 of the molar value.

Legend:
[1] = target: T1, 3-hydroxy-3-methylglutaryl-coenzyme A reductase (Homo sapiens, UniProt P04035); assay: Inhibitory constant against HMG-CoA reductase
T1 sequence (P04035 whole entry): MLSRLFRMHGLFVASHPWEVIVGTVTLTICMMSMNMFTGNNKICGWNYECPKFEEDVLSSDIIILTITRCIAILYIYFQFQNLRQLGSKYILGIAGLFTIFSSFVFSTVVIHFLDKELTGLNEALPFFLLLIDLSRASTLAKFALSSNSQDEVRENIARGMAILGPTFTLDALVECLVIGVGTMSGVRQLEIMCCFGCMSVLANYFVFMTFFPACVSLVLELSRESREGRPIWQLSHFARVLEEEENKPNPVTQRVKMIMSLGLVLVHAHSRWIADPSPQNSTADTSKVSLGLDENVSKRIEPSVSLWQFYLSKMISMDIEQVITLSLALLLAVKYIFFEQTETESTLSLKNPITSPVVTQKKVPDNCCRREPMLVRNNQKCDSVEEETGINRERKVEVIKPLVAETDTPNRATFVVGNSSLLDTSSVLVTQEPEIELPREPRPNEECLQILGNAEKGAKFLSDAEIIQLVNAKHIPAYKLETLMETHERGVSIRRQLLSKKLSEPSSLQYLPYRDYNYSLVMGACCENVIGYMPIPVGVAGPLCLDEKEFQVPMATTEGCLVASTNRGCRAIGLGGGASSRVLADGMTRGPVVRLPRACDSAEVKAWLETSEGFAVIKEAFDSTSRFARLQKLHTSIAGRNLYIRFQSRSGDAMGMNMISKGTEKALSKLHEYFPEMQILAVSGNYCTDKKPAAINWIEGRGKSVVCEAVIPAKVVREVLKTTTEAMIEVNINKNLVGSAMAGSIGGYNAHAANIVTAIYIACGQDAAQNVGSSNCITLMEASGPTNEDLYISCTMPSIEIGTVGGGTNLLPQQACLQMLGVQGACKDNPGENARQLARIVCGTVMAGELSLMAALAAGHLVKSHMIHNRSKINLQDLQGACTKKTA

[2] = target: T1, 3-hydroxy-3-methylglutaryl-coenzyme A reductase; assay: Inhibitory concentration against HMG-CoA reductase
[3] = target: T1, 3-hydroxy-3-methylglutaryl-coenzyme A reductase; assay: Inhibitory constant against HMG-CoA reductase with alpha asarone

Row | pKi [1] | pIC50 [2] | pKi [3] | Structure (SMILES)
1 | 7.63 | 5.40 |  | CC(O)(CC(=O)O)CC(=O)O [MEGLUTOL]
2 | 9.05 | 8.27 | 4.15 | CC(C)c1nc(N(C)S(C)(=O)=O)nc(-c2ccc(F)cc2)c1/C=C/[C@@H](O)C[C@@H](O)CC(=O)O [ROSUVASTATIN]
